Assay results reported in patent publication US12077503B2, “Substituted cyclic amides and their use as herbicides” (FMC CORPORATION, priority 2015, dated 2024).

How the values were obtained:
Format in all cases: in vivo
[1] = test system: Kochia (Kochia scoparia); experiment: Test A preemergence; conditions: Bassia scoparia, pre-emergence, 240 h, preemergence, 0 to 100 scale where 0 is no effect and 100 is complete control, read-out: Kochia plant response rating
Procedure, shortened: (§1)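 Seeded soil received test chemicals as a preemergence directed spray, and seedlings at one to two leaves, 2–10 cm tall, received them postemergence, in a non-phytotoxic, surfactant-containing solvent mixture. Pots were held in a greenhouse for approximately 10 d, then rated for injury from 0, no effect, to 100, complete control.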

[2] = test system: barnyardgrass (Echinochloa crus-galli); experiment: Test A preemergence; conditions: Echinochloa crus-galli, pre-emergence, 240 h, preemergence, 0 to 100 scale where 0 is no effect and 100 is complete control, read-out: Barnyardgrass plant response rating
Procedure, shortened: as §1

[3] = test system: giant foxtail (Setaria faberii); experiment: Test A preemergence; conditions: Setaria faberi, pre-emergence, 240 h, preemergence, 0 to 100 scale where 0 is no effect and 100 is complete control, read-out: Foxtail, Giant plant response rating
Procedure, shortened: as §1

[4] = test system: pigweed (Amaranthus retroflexus); experiment: Test A preemergence; conditions: Amaranthus retroflexus, pre-emergence, 240 h, preemergence, 0 to 100 scale where 0 is no effect and 100 is complete control, read-out: Pigweed plant response rating
[5] = test system: ragweed (common ragweed, Ambrosia elatior); experiment: Test A preemergence; conditions: Ambrosia artemisiifolia, pre-emergence, 240 h, preemergence, 0 to 100 scale where 0 is no effect and 100 is complete control, read-out: Ragweed plant response rating
Procedure, shortened: as §1

[6] = test system: ryegrass, Italian (Italian ryegrass, Lolium multiflorum); experiment: Test A preemergence; conditions: Lolium multiflorum, pre-emergence, 240 h, preemergence, 0 to 100 scale where 0 is no effect and 100 is complete control, read-out: Ryegrass, Italian plant response rating
Procedure, shortened: as §1

[7] = test system: Kochia (Kochia scoparia); experiment: Test A postemergence; conditions: Bassia scoparia, post-emergence, 240 h, postemergence
Procedure, shortened: as §1

[8] = test system: barnyardgrass (Echinochloa crus-galli); experiment: Test A postemergence; conditions: Echinochloa crus-galli, post-emergence, 240 h, postemergence
Procedure, shortened: as §1

[9] = test system: blackgrass (Alopecurus myosuroides); experiment: Test A postemergence; conditions: Alopecurus myosuroides, post-emergence, 240 h, postemergence
Procedure, shortened: as §1

[10] = test system: pigweed (Amaranthus retroflexus); experiment: Test A postemergence; conditions: Amaranthus retroflexus, post-emergence, 240 h, postemergence
Procedure, shortened: as §1

[11] = test system: barnyardgrass (Echinochloa crus-galli); experiment: Test B flooded paddy test; conditions: Echinochloa crus-galli, 250 g ai/ha, Flood; 0 to 100 scale where 0 is no effect and 100 is complete control; read-out: Barnyardgrass plant response rating
Procedure, shortened: (§2)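 Evaluation by eye, against controls, occurred 13–15 d post-treatment in a greenhouse, using a 0 (no effect) to 100 (complete control) scale. Application was into the paddy water, 3 cm deep over the soil, on 2-leaf plants.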

[12] = test system: ducksalad (Heteranthera limosa); experiment: Test B flooded paddy test; conditions: Heteranthera limosa, 250 g ai/ha, Flood; 0 to 100 scale where 0 is no effect and 100 is complete control; read-out: Ducksalad plant response rating
Procedure, shortened: as §2

[13] = test system: rice (Oryra sativa); experiment: Test B flooded paddy test; conditions: Oryza sativa, 250 g ai/ha, Flood; 0 to 100 scale where 0 is no effect and 100 is complete control; read-out: Rice plant response rating
Procedure, shortened: as §2

[14] = test system: sedge, umbrella (small-flower umbrella sedge, Cyperus difformis); experiment: Test B flooded paddy test; conditions: Cyperus difformis, 250 g ai/ha, Flood; 0 to 100 scale where 0 is no effect and 100 is complete control; read-out: Sedge, Umbrella plant response rating
Procedure, shortened: as §2

[15] = 125 g ai/ha, visual injury rating, approximately 10 d

CN1C[C@H](c2ccc(C#N)cc2)[C@@H](C(=O)Nc2cccc(F)c2F)C1=O [Compound 1208]
pest or weed control at 125 g/ha [1, 15]: 70%
pest or weed control at 500 g/ha ([1]; 500 g ai/ha): 100%
pest or weed control at 125 g/ha [2, 15]: 90%
pest or weed control at 500 g/ha ([2]; 500 g ai/ha): 100%
pest or weed control at 125 g/ha [3, 15]: 100%
pest or weed control at 500 g/ha ([3]; 500 g ai/ha): 100%
pest or weed control at 125 g/ha [4, 15]: 60%
pest or weed control at 500 g/ha ([4]; 500 g ai/ha): 90%
pest or weed control at 125 g/ha [5, 15]: 40%
pest or weed control at 500 g/ha ([5]; 500 g ai/ha): 100%
pest or weed control at 125 g/ha [6, 15]: 20%
pest or weed control at 500 g/ha ([6]; 500 g ai/ha): 70%
pest or weed control at 125 g/ha ([7]; 125 g ai/ha, visual injury vs untreated controls after approx. 10 d, 0 = no effect, 100 = complete control, read-out: Kochia plant response rating (0 to 100 scale)): 70%
pest or weed control at 500 g/ha ([7]; 500 g ai/ha, 0 to 100 scale, 0 is no effect, 100 is complete control, read-out: Kochia plant response rating): 70%
pest or weed control at 125 g/ha ([8]; 125 g ai/ha, visual injury vs untreated controls after approx. 10 d, 0 = no effect, 100 = complete control, read-out: Barnyardgrass plant response rating (0 to 100 scale)): 100%
pest or weed control at 500 g/ha ([8]; 500 g ai/ha, 0 to 100 scale, 0 is no effect, 100 is complete control, read-out: Barnyardgrass plant response rating): 100%
pest or weed control at 125 g/ha ([9]; 125 g ai/ha, visual injury vs untreated controls after approx. 10 d, 0 = no effect, 100 = complete control, read-out: Blackgrass plant response rating (0 to 100 scale)): 0%
pest or weed control at 500 g/ha ([9]; 500 g ai/ha, 0 to 100 scale, 0 is no effect, 100 is complete control, read-out: Blackgrass plant response rating): 0%
pest or weed control at 125 g/ha ([10]; 125 g ai/ha, visual injury vs untreated controls after approx. 10 d, 0 = no effect, 100 = complete control, read-out: Pigweed plant response rating (0 to 100 scale)): 30%
pest or weed control at 500 g/ha ([10]; 500 g ai/ha, 0 to 100 scale, 0 is no effect, 100 is complete control, read-out: Pigweed plant response rating): 60%
pest or weed control at 250 g/ha [11]: 45%
pest or weed control at 250 g/ha [12]: 95%
pest or weed control at 250 g/ha [13]: 15%
pest or weed control at 250 g/ha [14]: 0%
